Results reported in patent EP4729529A1, “PREPARATION OF PEPTIDE INHIBITOR OF INTERLEUKIN-23 RECEPTOR AND USE THEREOF” (Xizang Haisco Pharmaceutical Co., Ltd., priority 2023, dated 2024).
Positions of bridges follow the written chain, without caps; N, C: chain ends. Non-standard residues stand in square brackets, D forms with d. Residues, ends and D or L forms follow the SMILES beside them. Phe(4-OC2H4NH2,2,3-(CH2)3) = NCCOc1ccc(C[C@H](N)C(=O)O)c2c1CCC2; Trp(7-Me) = Cc1cccc2c(C[C@H](N)C(=O)O)c[nH]c12; 2Nal = N[C@@H](Cc1ccc2ccccc2c1)C(=O)O; 3Pal = N[C@@H](Cc1cccnc1)C(=O)O; Pen = CC(C)(S)[C@H](N)C(=O)O; Thp = NC1(C(=O)O)CCOCC1; Sar = CNCC(=O)O

Assays:
[1] = biological target: T1, IL-23α/IL-12β and IL-23R (Homo sapiens, UniProt Q5VWK5); assay: IL-23α/IL-12β and IL-23R binding assay (TR-FRET/HTRF); details: inhibition of the binding of IL-23α/IL-12β to IL-23R, TR-FRET; both proteins 0.3 nM
T1 construct: purchased ACRO ILR-H82F3 (IL-23R); ILB-H52W5 (IL-23α/IL-12β)
T1 sequence (Q5VWK5 24-353 limits assumed): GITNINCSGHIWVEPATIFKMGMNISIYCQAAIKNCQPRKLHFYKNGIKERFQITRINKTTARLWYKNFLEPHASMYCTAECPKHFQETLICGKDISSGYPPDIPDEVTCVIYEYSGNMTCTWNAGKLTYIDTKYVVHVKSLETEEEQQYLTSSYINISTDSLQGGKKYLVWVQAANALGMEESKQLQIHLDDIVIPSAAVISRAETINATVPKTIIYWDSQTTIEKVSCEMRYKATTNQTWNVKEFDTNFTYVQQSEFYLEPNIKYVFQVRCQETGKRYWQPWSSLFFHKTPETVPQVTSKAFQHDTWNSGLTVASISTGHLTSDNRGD
Method in brief: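 TR-FRET with IL-23α/IL-12β and IL-23R each at 0.3 nM in PPI buffer; compound preincubated with IL-23α/IL-12β 60 min at 25°C, then IL-23R and Tb/d2 detection reagents added for 60 min. HTRF 665/620 ratio; IC50 by nonlinear regression.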

[2] = Pharmacokinetic test in mice (intravenous and intragastric, plasma LC-MS/MS); assay type: in vivo; details: male, mouse, Balb/c mice
Description: 4. Pharmacokinetic test in mice
4.1. Experimental animals: Male Balb/c mice (20-25 g, 18 mice/compound) were purchased from Chengdu Dossy Experimental Animals Co., Ltd.
4.2. Experimental design: On the day of the experiment, the Balb/c mice were randomly grouped by body weight. The animals were fasted with water available for 12-14 h one day before the administration, and were fed 4 h after the administration. Table 4. Administration information
Before and after administration, 0.06 mL of blood was taken from the orbit under isoflurane anaesthesia, and placed in an EDTAK2 centrifuge tube. The tube was centrifuged at 5000 rpm at 4°C for 10 min, and plasma was collected. The blood collection time points for the intravenous group and intragastric group were both 0 min, 5 min, 15 min, 30 min, 1 h, 2 h, 4 h, 6 h, 8 h, and 24 h. Before analysis and detection, all samples were stored at -80°C, and the samples were quantitatively analysed by LC-MS/MS. Table 5. Pharmacokinetic parameters of test compounds in mouse plasma

[3] = Test of stability in plasma, mouse; assay type: in vitro ADME; details: read-out: Residual rate% at 37°C for 6 h
Description: 5. Test of stability in plasma
In this experiment, plasmas of five species, including human, monkey, dog, rat, and mouse, were used to evaluate the stability in plasma of Compound 7.
A plasma sample was prepared at a concentration level of 1000 ng/mL, and dispensed into EP tubes at time points 0 h and 6 h. Acetonitrile solution containing an internal standard was added directly to the 0 h sample; and the 6 h sample was placed at 37°C for the corresponding time, and then added with an acetonitrile solution containing internal standard. The concentration of the test compound in the sample was measured by the LC-MS/MS method, and the residual rate was calculated from the ratio of the peak areas of the test compound to the internal standard in the time point sample and the 0 h sample.
Experimental results: At the concentration level of 1000 ng/mL under the test conditions, the residual rates of the test Compounds were shown in Table 6 below. Table 6. Residual rate% at 37°C for 6 h

[4] = Test of stability in gastrointestinal fluid: simulated gastric fluid (pepsin); assay type: in vitro ADME; details: 0.5 mg/ml, 37°C
Description: (§1) 6. Test of stability in gastrointestinal fluid
1.1. Preparation of dilute hydrochloric acid: 23.4 ml of hydrochloric acid was diluted with water to 1000 ml.
1.2. Preparation of simulated gastric fluid: 1.64 ml of dilute hydrochloric acid and 1 g of pepsin were added to about 80 ml of water. After being shaken well, the mixture was diluted with water to 100 ml.
(§2) About 12.5 mg of the sample was added to a 25 ml volumetric flask and dissolved in the simulated gastric fluid (or simulated intestinal fluid), and the mixture was diluted to the mark.
(§3) Instrument model: Agilent 1260 Infinity; mobile phase A: 10 mmol/L K2HPO4, and mobile phase B: acetonitrile; column: Phenomenex Gemini^@ 3 um C18 110Å 150 * 4.6 mm; wavelength: 224 nm; column temperature: 30°C; sample tray temperature: 37°C; injection time: 35 min; injection volume: 10 ul; injection mode: gradient injection; and gradient method. Table 7. Gradient mobile phase
(§4) Sampling and testing: Firstly, the blank solution (simulated gastric fluid or simulated intestinal fluid) was tested. Then, the prepared sample (newly prepared for use) was placed in the injection tray for immediate injection. Then, a needle of sample was injected at 4.5 h, 9.5 h, and 18 h, respectively.
(§5) Table 8. Stability in gastrointestinal fluid

[5] = Test of stability in gastrointestinal fluid: simulated intestinal fluid (trypsin, pH 6.8); assay type: in vitro ADME; details: 0.5 mg/ml, 37°C
Description: as §1
1.3. Preparation of 0.1 mol/L NaOH: 0.4 g of NaOH was dissolved in 100 ml of water.
1.4. Preparation of simulated intestinal fluid: 0.68 g of potassium dihydrogen phosphate was dissolved in 50 ml of water, and the pH value was adjusted to 6.8 with 0.1 mol/L sodium hydroxide solution. 1 g of trypsin was dissolved in an appropriate amount of water. After the two solutions were mixed, the mixture was diluted with water to 1000 ml.
as §2, §3, §4, §5

**Q.** Which results are given for CC(=O)NCCCC[C@@H]1NC(=O)[C@H](Cc2c[nH]c3c(C)cccc23)NC(=O)[C@H]([C@@H](C)O)NC(=O)[C@H](Cc2c[nH]cn2)NC(=O)[C@@H](NC(C)=O)C(C)(C)SSC(C)(C)[C@@H](C(=O)N[C@@H](Cc2ccc(OCCN)c3c2CCC3)C(=O)N[C@@H](Cc2ccc3ccccc3c2)C(=O)NC2(C(=O)N[C@@H](CCC(=O)O)C(=O)N[C@@H](CC(N)=O)C(=O)N[C@@H](Cc3cccnc3)C(=O)N(C)CC(N)=O)CCOCC2)NC1=O [Compound 7] (Ac-[Pen]HT[Trp(7-Me)]K(Ac)[Pen][Phe(4-OC2H4NH2,2,3-(CH2)3)][2Nal][Thp]EN[3Pal][Sar]-NH2; disulfide 1-6)?
**A.** IC50 [1]: 0.0539 nM; AUC(0-t) ([2]; iv, i.v. (1 mg/kg)): 4720 ± 512 ng·h/mL; clearance ([2]; iv, i.v. (1 mg/kg)): 3.52 ± 0.38 mL/min/kg; Vd ([2]; iv, i.v. (1 mg/kg), read-out: Vdss): 0.261 ± 0.01 L/kg; AUC(0-t) ([2]; po, i.g. (10 mg/kg)): 227 ± 100 ng·h/mL; bioavailability ([2]; po, i.g. (10 mg/kg)): 0.482 ± 0.21%; remaining at 6 h, 1000 ng/mL [3]: > 99%; Peak area% ([4]; 0 h): 95.281%; Peak area% ([4]; 4.5 h): 94.678%; Peak area% ([4]; 9.5 h): 96.304%; Peak area% ([4]; 18 h): 93.661%; Peak area% ([5]; 0 h): 94.095%; Peak area% ([5]; 4.5 h): 93.552%; Peak area% ([5]; 9.5 h): 93.575%; Peak area% ([5]; 18 h): 94.831%
